Data as given in ChEMBL document CHEMBL3045756, “Design, synthesis, antifungal activity, and ADME prediction of functional analogues of terbinafine” (Med Chem Res, 2009).
Values after ≈ are worked out from the molar mass of the structure shown.

Assays:
[1] = test system: Candida albicans; assay: Antifungal activity against Candida albicans NCIM 3557 after 48 hr by agar streak dilution method; type: functional; settings: NCIM 3557, 48 h
[2] = Acute toxicity in po dosed Mus musculus (mouse); type: organism-based; settings: in vivo

## CN(Cc1cc2ccccc2o1)Cc1cccc2cccnc12
[1]
  MIC: > 100 µg/mL

## CN(Cc1cccc2cccnc12)Cc1cccc2cccnc12
[2]
  LD50: 700 mg/kg
[1]
  MIC: 4 µg/mL (≈ 12.8 µM)

## CN(Cc1ccc2ccccc2c1)Cc1cccc2cccnc12
[2]
  LD50: > 2000 mg/kg
[1]
  MIC: 8 µg/mL (≈ 25.6 µM)

## CN(Cc1ccc(-c2ccccc2C#N)cc1)Cc1cccc2cccnc12
[1]
  MIC: > 100 µg/mL

## CN(Cc1ccc([N+](=O)[O-])cc1)Cc1cccc2cccnc12
[2]
  LD50: > 2000 mg/kg
[1]
  MIC: 25 µg/mL (≈ 81.3 µM)

## CN(Cc1ccc(Cl)cc1)Cc1cccc2cccnc12
[1]
  MIC: 75 µg/mL (≈ 253 µM)

## CN(Cc1nc2cc(Cl)ccc2[nH]1)Cc1cccc2cccnc12
[2]
  LD50: > 2000 mg/kg
[1]
  MIC: 10 µg/mL (≈ 29.7 µM)

## CN(Cc1nc2cc([N+](=O)[O-])ccc2[nH]1)Cc1cccc2cccnc12
[2]
  LD50: > 2000 mg/kg
[1]
  MIC: 25 µg/mL (≈ 72 µM)

## Cc1ccc2[nH]c(CN(C)Cc3cccc4cccnc34)nc2c1
[1]
  MIC: > 100 µg/mL

## CN(Cc1nc2ccccc2[nH]1)Cc1cccc2cccnc12
[1]
  MIC: 40 µg/mL (≈ 132 µM)
